Measured values reported in patent US11413266B2, “Use of cannabinoids in the treatment of inflammatory skin diseases” (GW Pharma Limited, priority 2015, dated 2022).

How the values were obtained:
[1] = test system: human epidermal keratinocytes; assay: Summary score, TLR3-induced inflammation model (microbial infection-induced dermatitis); assay type: cell-based; settings: sum of +1 anti-inflammatory, 0 no effect, −1 pro-inflammatory, Table 1
[2] = test system: DNFB-induced allergic contact dermatitis (ACD); assay: DNFB-induced allergic contact dermatitis (ACD) in mice, ear swelling; assay type: in vivo
Protocol: A total of 10 animals per group were used in the experiments described here.
Briefly, DNFB was diluted in acetone/olive oil (4:1 by vol.) immediately before use and eight-ten week-old female C57BL/6J mice were sensitized by painting 50 μl of 0.2% DNFB on the shaved abdomen on two consecutive days. Then, mice were challenged by painting 10 μl of 0.3% DNFB on both sides of one ear on day 5.
Ear swelling was measured 24, 48 and 72 h after this first challenge by measuring the difference in ear thickness between the unchallenged and the challenged ear using an engineer's micrometer. CBD (2.5, -5- and 10 mg·kg-1) was administered intraperitoneally (i.p.) on day 5 (the day of the first challenge with DNFB), 6 and, 7 after the initial sensitization with DNFB. CBD was dissolved in DMSO and Tween-20 1%.
For the determination of MCP-2, endocannabinoids, PEA and OEA, group means were compared using the one-way ANOVA followed by Newman-Keuls multiple comparison test or the Student's t-test. For the determination of cell viability, group means were compared using the Student's t-test. All determinations were performed at least in triplicate. For the determination of ear thickness, group means were compared using the one-way ANOVA followed by Tukey-Kramer multiple comparison test (n=10).

[3] = test system: IL8; assay: UVB-induced IL8 release in HaCaT keratinocytes, ELISA; assay type: cell-based, human; settings: 0.3 μM
[4] = test system: IL6; assay: UVB-induced IL6 release in HaCaT keratinocytes, ELISA; assay type: cell-based, human; settings: 3 μM
[5] = test system: IL8; assay: PolyIC-induced IL8 release in NHEK keratinocytes, ELISA; assay type: cell-based, human; settings: NHEKs; concentration not singled out (0.3 and 3 μM tested)
[6] = test system: OEA; assay: OEA levels in poly-(I:C)-stimulated HaCaT cells (LC-APCI-MS); assay type: cell-based, human; settings: CBD 20 μM, 6 h
Protocol: (§1) HaCaT cells were plated into six-well culture plates at a cell density of 9×10^5 cells per well, and after 1 day were stimulated with poly-(I:C) (100 μg·ml-1) and treated with CBD (20 μM) or vehicle, and incubated for 6 h at 37° C. in 5% CO2.
(§2) After 6 h the resulting cells and supernatants were subjected to measurement of endocannabinoids such as N-arachidonoyl-ethanolamine (anandamide, AEA) and 2-arachidonoyl-glycerol (2-AG), and related N-acylethanolamines such as PEA and N oleoylethanolamine (OEA).
(§3) Cells and supernatants were homogenized in a solution of chloroform/methanol/Tris-HCl 50 mM pH 7.4 (2:1:1 by vol.) containing 10 pmol of [2H]8-AEA, and 5 pmol of [2H]5-2-AG, [2H]4-PEA and [2H]2-OEA as internal deuterated standards. The lipid-containing organic phase was pre-purified by open-bed chromatography on silica gel, and fractions obtained by eluting the column with a solution of chloroform/methanol (90:10 by vol.) were analyzed by liquid chromatography-atmospheric pressure chemical ionization-mass spectrometry (LC-APCI-MS) by using a Shimadzu HPLC apparatus (LC-10ADVP) coupled to a Shimadzu (LCMS-2020) quadrupole MS via a Shimadzu APCI interface. […]

[7] = test system: AEA; assay: AEA levels in poly-(I:C)-stimulated HaCaT cells (LC-APCI-MS); assay type: cell-based, human; settings: CBD 20 μM, 6 h
Protocol: as §1, §2, §3

[8] = test system: MCP-2; assay: MCP-2 ELISA in supernatants of poly-(I:C)-stimulated HaCaT cells; assay type: cell-based, human
[9] = test system: IL8; assay: UVB-induced IL8 mRNA expression in HaCaT keratinocytes, RT-qPCR; assay type: cell-based, human
[10] = test system: HPV-Ker keratinocytes; assay: Summary score, SEB/TSLP-induced inflammation model (atopic dermatitis); assay type: cell-based, human; settings: sum of +1 anti-inflammatory, 0 no effect, −1 pro-inflammatory, Table 3
[11] = test system: 2-AG; assay: 2-AG levels in poly-(I:C)-stimulated HaCaT cells (LC-APCI-MS); assay type: cell-based, human; settings: CBD 20 μM, 6 h
Protocol: as §1, §2, §3

[12] = test system: HaCaT cells; assay: Cell viability of HaCaT cells (MTT); assay type: cell-based, human; settings: 20 μM
Protocol: Cell viability was measured after 6 h in HaCaT cells treated with CBD (20 μM) or vehicle by using the 3-(4,5-dimethylthiazol-2yl)-2,5-diphenyl tetrazolium bromide (MTT) colorimetric assay.
Briefly, after 6 h HaCaT cells were incubated with MTT (5 mg·ml-1) for 3 h at 37° C. in 5% CO2. After 3 h HaCaT cells were lysed with DMSO and incubated for 6 h at 37° C. in 5% CO2.
Absorbance was measured at 630 nm. Results are expressed as % of cell viability, where optical density values from vehicle-treated cells were defined as 100% of cell viability.

[13] = test system: human sebocytes; settings: Oláh et al., 2014; cited from earlier work
[14] = test system: IL6; assay: PolyIC-induced IL6 release in NHEK keratinocytes, ELISA; assay type: cell-based, human; settings: NHEKs; concentration not singled out (0.3 and 3 μM tested)
[15] = test system: human epidermal keratinocytes; assay: Summary score, UVB-induced inflammation model (solar dermatitis); assay type: cell-based; settings: sum of +1 anti-inflammatory, 0 no effect, −1 pro-inflammatory, Table 2
[16] = test system: IL6; assay: UVB-induced IL6 mRNA expression in HaCaT keratinocytes, RT-qPCR; assay type: cell-based, human; settings: 0.3 μM

C=C(C)[C@@H]1CCC(C)=C[C@H]1c1c(O)cc(CCCCC)cc1O [CBD, Cannabidiol]
SCORE ([1]; 0.3 μM): 5 | SCORE ([1]; 3 μM): 8 | ear thickness ([2]; 2.5 mg·kg-1 i.p.): did not show any statistically significant effect | ear thickness ([2]; 5 mg·kg-1 i.p.): did not show any statistically significant effect | ear thickness ([2]; 10 mg·kg-1 i.p. on day 5, 6 and 7, 48 h after first challenge, vs control mice): reduced | ear thickness ([2]; 10 mg·kg-1 i.p. on day 5, 6 and 7, 72 h after first challenge, vs control mice): reduced | UVB-upregulated IL8 (ELISA) [3]: anti-inflammatory effects | UVB-upregulated IL6 (ELISA) [4]: anti-inflammatory effects | PolyIC-induced elevated release of IL8 [5]: dose-dependent suppression | OEA levels [6]: No consistent effect | AEA levels, increase compared to poly-(I:C)-stimulated HaCaT cells [7]: −2.7 fold | AEA levels, increase compared to vehicle-treated HaCaT cells [7]: −8 fold | MCP-2 production ([8]; 20 μM, poly-(I:C)-stimulated HaCaT, 6 h): maximum effect | MCP-2 protein levels ([8]; 1, 5, 10 and 20 μM, poly-(I:C) 100 μg·ml-1, 6 h, vs vehicle): strong concentration-dependent reduction | MCP-2 protein levels ([8]; compound alone, 20 μM, absence of poly-(I:C), vs vehicle-treated HaCaT, data not shown): no significant variation | potency in the inhibition of MCP-2 chemokine production relative to other phytocannabinoids tested ([8]; poly-(I:C)-stimulated keratinocytes): more potent | UVB-upregulated IL8 (RT-qPCR) ([9]; 0.3 μM): anti-inflammatory effects | UVB-upregulated IL8 (RT-qPCR) ([9]; 3 μM): pro-inflammatory effects | SCORE ([10]; 0.3 μM): −1 | SCORE ([10]; 3 μM): 1 | 2-AG levels [11]: No consistent effect | cytotoxicity [12]: not cytotoxic | anti-acne effects [13]: exerted anti-acne effects | PolyIC-induced elevated release of IL6 [14]: dose-dependent suppression | SCORE ([15]; 0.3 μM): 5 | SCORE ([15]; 3 μM): 1 | UVB-upregulated IL6 (RT-qPCR) [16]: anti-inflammatory effects
